For five molecules, CC50 and CC90 results are on record in patent US10806746B2, “Di- and tri-cationic glycosylated antitumor ether lipids, L-gucosylated gaels and rhamnose-linked gaels as cytotoxic agents against epithelial cancer cells and cancer stem cells” (The University of Manitoba, priority 2014, dated 2020).

Read-outs that look alike come from different tables or passages of the source.

Holding throughout (format): cell-based, human
In one data set the test system is DU145 cells. Nature of the data set: MTS viability assay, DU145 prostate cancer cells. As for the experimental part:
(§1) FIG. 2D. Effects of compounds 1-11 on the viability of DU145 cells. DU145 cells were cultured in DMEM medium supplemented with 10% FBS. Equal numbers were dispersed into 96-well plates. After 24 h, the cells were incubated with compounds 1-11 (0-30 μM) for 48 h. At the end of the incubation, MTS reagent (20% vol/vol) was added and the plates were incubated for 1-4 h. The OD490 was read with a plate reader. Wells with media but no cells were treated in similar fashion and the values utilized as blank. The results represent the mean±standard deviation of 6 independent determinations.
FIG. 2H. Effect of compounds 1, 69-72 on the viability of DU145 cells. DU145 cells were cultured in DMEM medium supplemented with 10% FBS. Equal numbers were dispersed into 96-well plates. After 24 h, the cells were incubated with compounds 1, 69-72 for 48 h. At the end of the incubation, MTS reagent (20% vol/vol) was added and the plates were incubated for 1-4 h. The OD490 was read with a plate reader. Wells with media but no cells were treated in similar fashion and the values utilized as blank. The results represent the mean±standard deviation of 6 independent determinations.
(§2) The cell lines were cultured from frozen stocks originally obtained from ATCC. MDA-MB-231, JIMT-1, DU145, U81, U251 cells were grown in DMEM medium. BT474, A2780s, A2780cp cells were grown in DMEM/F12 medium supplemented with 10% FBS. MiaPaCa2 was cultured in DMEM supplemented with 10% FBS and 2.5% horse serum. PC3 cells were cultured in F12K medium supplemented with 10% FBS. All the media were supplemented with penicillin/streptomycin.
(§3) The effects of the GAELs on the viability of the various epithelial cancer cell lines was determined as previously described. Briefly, equal numbers of the cells were dispersed into 96-well plates. After 24 h, the cells were incubated with the compounds (0-30 μM) for 48 h. At the end of the incubation, MTS reagent (20% vol/vol) was added and the plates were incubated for 1-4 h. The OD490 was read with a plate reader. Wells with media but no cells were treated in similar fashion and the values utilized as blank. The results represent the mean±standard deviation of 6 independent determinations.
(Tetrazolium dyes change colour on reduction, which living cells bring about.)

Another data set has as its system JIMT-1 cells. The data set is described as follows: MTS viability assay, JIMT-1 breast cancer cells. As for the experimental part: FIG. 2B. Effects of compounds 1-11 on the viability of JIMT-1 cells. JIMT-1 cells were cultured in DMEM medium supplemented with 10% FBS. Equal numbers were dispersed into 96-well plates. After 24 h, the cells were incubated with compounds 1-11 (0-30 μM) for 48 h. At the end of the incubation, MTS reagent (20% vol/vol) was added and the plates were incubated for 1-4 h. The OD490 was read with a plate reader. Wells with media but no cells were treated in similar fashion and the values utilized as blank. The results represent the mean±standard deviation of 6 independent determinations.
(§4) FIG. 2J. Effects of compounds 1, 69-72 on the viability of JIMT-1 cells. JIMT-1 cells were cultured in DMEM medium supplemented with 10% FBS. Equal numbers were dispersed into 96-well plates. After 24 h, the cells were incubated with compounds 1, 69-72 for 48 h. At the end of the incubation, MTS reagent (20% vol/vol) was added and the plates were incubated for 1-4 h. The OD490 was read with a plate reader. Wells with media but no cells were treated in similar fashion and the values utilized as blank. The results represent the mean±standard deviation of 6 independent determinations.
as §2, §3

The test system of a further data set is MiaPaCa2 cells. The data set is described as follows: MTS viability assay, MiaPaCa2 pancreas cancer cells. As for the experimental part:
as §1, with “2F.” for “2D.”, “MiaPaCa2” for “DU145”, “FBS and 2.5% horse serum.” for “FBS.”
as §4, with “2I.” for “2J.”, “MiaPaCa2” for “JIMT-1”, “FBS and 2.5% horse serum.” for “FBS.”
as §2, §3

The next data set concerns PC3 cells. Nature of the data set: MTS viability assay, PC3 prostate cancer cells. As for the experimental part: FIG. 2E. Effects of compounds 1-11 on the viability of PC3 cells. PC3 cells were cultured in F12K medium supplemented with 10% FBS. Equal numbers were dispersed into 96-well plates. After 24 h, the cells were incubated with compounds 1-11 (0-30 μM) for 48 h. At the end of the incubation, MTS reagent (20% vol/vol) was added and the plates were incubated for 1-4 h. The OD490 was read with a plate reader. Wells with media but no cells were treated in similar fashion and the values utilized as blank. The results represent the mean±standard deviation of 6 independent determinations.
as §2, §3

Data set [1] relates to BT-474, JIMT-1, MDA-MB-231 (breast), DU145, PC3 (prostate), MiaPaCa2 (pancreas). The data set is described as follows: MTS viability, panel of epithelial cancer cell lines (ranges over the cell lines). Conditions: range over the cell lines tested, 48 h; for CC50: read-out: CC50 values, range depending on the cell line. As for the experimental part: To determine the effect of compounds 1-10 on the viability of the epithelial cancer cell lines, exponentially growing cells, BT-474, JIMT-1, MDA-MB-231 (breast), DU145, PC3 (prostate), MiaPaCa2 (pancreas) were incubated with varying concentrations of 1-8 (0-30 μM) for 48 h followed by viability assays with the MTS reagent.
as §3

Where [2] appears, read: Table 1A, 48 h, read-out: CC50 values DU 145.
Setting [3] is: Table 1B, 48 h, read-out: CC90 values DU 145.
[4] abbreviates: Table 1A, 48 h, read-out: CC50 values JIMT1.
[5] abbreviates: Table 1B, 48 h, read-out: CC90 values JIMT1.
[6] abbreviates: Table 1A, 48 h, read-out: CC50 values MiaPaCa2.
Where [7] appears, read: Table 1B, 48 h, read-out: CC90 values MiaPaCa2.
The mark [8] stands for this setting: Table 1A, 48 h, MTS, read-out: CC50 values PC3.
Where [9] appears, read: Table 1B, 48 h, MTS, read-out: CC90 values PC3.
Where [10] appears, read: Homo sapiens, DU-145, Table 5, 48 h, read-out: CC50 DU-145.
[11] abbreviates: Homo sapiens, DU-145, Table 5, 48 h, read-out: CC90 DU-145.
[12] abbreviates: Homo sapiens, JIMT-1, Table 5, 48 h, read-out: CC50 JIMT1.
Setting [13] is: Homo sapiens, JIMT-1, Table 5, 48 h, read-out: CC90 JIMT1.
The mark [14] stands for this setting: Homo sapiens, MIA PaCa-2, Table 5, 48 h, read-out: CC50 Mlapaca2.
Setting [15] is: Homo sapiens, MIA PaCa-2, Table 5, 48 h, read-out: CC90 Mlapaca2.
Setting [16] is: Homo sapiens, PC-3, Table 5, 48 h, MTS, read-out: CC50 PC3.
[17] abbreviates: Homo sapiens, PC-3, Table 5, 48 h, MTS, read-out: CC90 PC3.

As usually defined, the CC50 is the concentration at which the toxic effect on the cells reaches its halfway point. For the molecule `CCCCCCCCCCCCCCCCOCC(CO[C@@H]1O[C@H](CN)[C@@H](O)[C@H](O)[C@H]1N)O[C@@H]1O[C@H](CN)[C@@H](O)[C@H](O)[C@H]1N` (stereo partly drawn) [Compound 5, 1-O-Hexadecyloxy-2S/R, 3-di(-2′,6′-diamino-2′, 6′-dideoxy-β-D-glucopyranosyl)-glycerol], the CC50 (in the data set with DU145 cells (setting [2]); in the data set with JIMT-1 cells (setting [4]); in the data set with MiaPaCa2 cells (setting [6]); in the data set on PC3 cells (setting [8]); in data set [1]) was above 30 µM in each case. Further, the CC90 in the data set on DU145 cells (setting [3]), in the data set with JIMT-1 cells (setting [5]), with MiaPaCa2 cells (setting [7]) and with PC3 cells (setting [9]) was above 30 µM throughout.

Turning to `CCCCCCCCCCCCCCCCOC[C@@H](CN=[N+]=[N-])O[C@@H]1O[C@H](CO)[C@@H](O)[C@H](O)[C@H]1N` [Compound 6, 1-O-Hexadecyloxy-2R-(2′-amino-2′-deoxy-β-D-glucopyranosyl)-3-azido glycerol], the CC50 in the data set with DU145 cells (setting [2]) is 12.5 µM; with JIMT-1 cells (setting [4]), 9.5 µM; in the data set with MiaPaCa2 cells (setting [6]) it was 11.5 µM; in the data set on PC3 cells (setting [8]), 6 µM; in the data set on PC3 cells (read-out: CC50 against PC-3 cell lines) it was 6 µM; in data set [1], 6 to 22 µM. For the same molecule, the CC90 with DU145 cells (setting [3]) is 18 µM; with JIMT-1 cells (setting [5]), 13.5 µM; in the data set on MiaPaCa2 cells (setting [7]), 18.5 µM; with PC3 cells (setting [9]), 15 µM.

Consider `CCCCCCCCCCCCCCCCOCCCO[C@@H]1O[C@H](CN)[C@@H](O)[C@H](O)[C@H]1N` [Compound 4, 1-O-Hexadecyl-2-deoxy-3-O-(2′6′-diamino-2′,6′-dideoxy-β-D-glucopyranosyl)-sn-glycerol], for which the CC50 in the data set with DU145 cells (setting [2]) is 6 µM; in the data set on JIMT-1 cells (setting [4]) it was 4 µM; in the data set with MiaPaCa2 cells (setting [6]) it was 6.5 µM; in the data set on PC3 cells (setting [8]) it was 8 µM; in data set [1] it was 4 to 8.5 µM. Besides, the CC90 with DU145 cells (setting [3]) is 8.5 µM; in the data set on JIMT-1 cells (setting [5]) it was 6 µM; in the data set on MiaPaCa2 cells (setting [7]), 13 µM; with PC3 cells (setting [9]) it was 14 µM.

`CCCCCCCCCCCCCCCCOCC(CO[C@@H]1OC(CO)[C@H](O)[C@H](O)C1N)OC` (stereo partly drawn) [Compound 69]: the cytotoxic concentration (CC50) was 12.5 µM in the data set on DU145 cells (Homo sapiens, DU-145, Table 2A, 48 h, read-out: CC50 values DU 145); 12.5 µM in the data set on DU145 cells (setting [10]); 6.5 µM with JIMT-1 cells (Homo sapiens, JIMT-1, Table 2A, 48 h, read-out: CC50 values JIMT1); 6.5 µM in the data set on JIMT-1 cells (setting [12]); 7.5 µM in the data set with MiaPaCa2 cells (Homo sapiens, MIA PaCa-2, Table 2A, 48 h, read-out: CC50 values MiaPaCa2); 7.5 µM with MiaPaCa2 cells (setting [14]). The half-maximal cytotoxic concentration (CC50) in the data set with PC3 cells (Homo sapiens, PC-3, Table 2A, 48 h, MTS, read-out: CC50 values PC3) is 12.5 µM; in the data set with PC3 cells (setting [16]), 12.5 µM; in data set [1] (Homo sapiens) it was 6.5 to 12.5 µM. Also, the CC90 in the data set on DU145 cells (Homo sapiens, DU-145, Table 2B, 48 h, read-out: CC90 values DU 145) stood at 16 µM; in the data set on DU145 cells (setting [11]), 16 µM; with JIMT-1 cells (Homo sapiens, JIMT-1, Table 2B, 48 h, read-out: CC90 values JIMT1) it was 11 µM; in the data set on JIMT-1 cells (setting [13]) it was 11 µM; with MiaPaCa2 cells (Homo sapiens, MIA PaCa-2, Table 2B, 48 h, read-out: CC90 values MiaPaCa2), 18 µM; with MiaPaCa2 cells (setting [15]), 18 µM. The CC90 was 16 µM in the data set on PC3 cells (Homo sapiens, PC-3, Table 2B, 48 h, MTS, read-out: CC90 values PC3) and 16 µM with PC3 cells (setting [17]).

Regarding `CCCCCCCCCCCCCCCCOC[C@H](CO[C@H]1O[C@H](CN)[C@@H](O)[C@H](O)[C@H]1N)OC` [Compound 1, 1-O-Hexadecyl-2-O-methyl-3-O-(2′,6′-diamino-2′,6′-dideoxy-α-D-glucopyranosyl)-sn-glycerol], the CC50 turned out to be 5.2 µM in the data set with DU145 cells (Homo sapiens, DU-145, Table 1A, 48 h, read-out: CC50 values DU 145); 5.2 µM in the data set on DU145 cells (setting [10]); 3.5 µM in the data set on JIMT-1 cells (Homo sapiens, JIMT-1, Table 1A, 48 h, read-out: CC50 values JIMT1); 3.5 µM in the data set on JIMT-1 cells (setting [12]); 3.5 µM with MiaPaCa2 cells (Homo sapiens, MIA PaCa-2, Table 1A, 48 h, read-out: CC50 values MiaPaCa2); 3.5 µM with MiaPaCa2 cells (setting [14]). In addition, the CC50 was 3.5 µM in the data set with PC3 cells (Homo sapiens, PC-3, Table 1A, 48 h, MTS, read-out: CC50 values PC3); 3.5 µM in the data set with PC3 cells (setting [16]); 3 to 7.5 µM in data set [1] (Homo sapiens). The CC90 in the data set with DU145 cells (Homo sapiens, DU-145, Table 1B, 48 h, read-out: CC90 values DU 145) was found to be 7.4 µM; with DU145 cells (setting [11]) it was 7.4 µM; in the data set with JIMT-1 cells (Homo sapiens, JIMT-1, Table 1B, 48 h, read-out: CC90 values JIMT1), 4.9 µM; with JIMT-1 cells (setting [13]), 4.9 µM; in the data set on MiaPaCa2 cells (Homo sapiens, MIA PaCa-2, Table 1B, 48 h, read-out: CC90 values MiaPaCa2), 6.5 µM; in the data set on MiaPaCa2 cells (setting [15]), 6.5 µM. In addition, the CC90 in the data set on PC3 cells (Homo sapiens, PC-3, Table 1B, 48 h, MTS, read-out: CC90 values PC3) was 6 µM; in the data set on PC3 cells (setting [17]), 6 µM; in data set [1] (Homo sapiens, read-out: CC90 (90% loss of cell viability), range depending on cell lines) it was 4.5 to 9.5 µM.
